In PubChem BioAssay AID1189 (EPA DSSTox, 2008):
Calls of active or inactive are those of the source.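 Rule for the calls: active = a tumor-causing dose value with its tumor site reported for any sex and species group of a rodent or other animal cancer study; inconclusive = only studies judged inadequate by the national testing program; inactive = tested in at least one study, none positive.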

Test: DSSTox (CPDBAS) Carcinogenic Potency Database Summary SingleCellCall Results
Details: animal chronic carcinogenicity bioassays, CPDB summary call
From the text: The Carcinogenic Potency Database (CPDB) is a unique and widely used international resource of the results of over 6500 chronic, long-term animal cancer tests on over 1500 chemical substances. The CPDB provides easy access to the bioassay literature, with qualitative and quantitative analyses of both positive and negative experiments that have been published over the past 50 years in the general literature and by the National Cancer Institute/National Toxicology Program. The CPDB standardizes the diverse literature of cancer bioassays that vary widely in protocol, histopathological examination and nomenclature, and in the published author's choices of what information to provide in their papers. Results are reported in the CPDB for tests in rats, mice, hamsters, dogs, and nonhuman primates, and are based on the most positive result among all experiments for each sex-species. The DSSTox CPDBAS (all species) file incorporates data from the CPDB Summary Tables for the full list of over 1500 chemical substances tested in at least one species. A summary SingleCellCall, based on experimental bioassay results of one or more species, is provided for the entire DSSTox CPDBAS file (see Source URL).
An assignment of categorical carcinogenic activity based on minimal evidence for or against activity. […] Associated TD50 values and tumor site details for the relevant species/sex experiment supporting this overall CPDBAS SingleSiteCall are provided in the full CPDBAS DSSTox file (see Comment) and the corresponding CPDBAS Species Bioassay in PubChem.

Structure (SMILES) | outcome
CC(=O)Nc1ccc2c(c1)Cc1cc(NC(C)=O)ccc1-2 | inactive
CC(O)CN(C)N=O (stereo not given) | active
O=c1oc2c(O)c(O)cc3c(=O)oc4c(O)c(O)cc1c4c23 | inactive
OCCN(CCO)c1nc(-c2cccs2)nc2ccccc12 | inactive
COC(=O)C(c1ccccc1)C1CCCCN1 (stereo not given) | active
CC(=O)Nc1ccc(C(=O)CCl)cc1 | inactive
O=[N+]([O-])c1ccc2ncccc2c1 | inactive; active
C/C1=C\C=C(\C(C)C)[C@@H](O)C/C(C)=C/CC/C(C)=C/CC1 | inactive
CC(Cl)C=O (stereo not given) | active
CC(=O)Nc1nc(NC(C)=O)nc(-c2ccc([N+](=O)[O-])o2)n1 | active
CCN(CC)C(=S)[S-].CCN(CC)C(=S)[S-].[Zn+2] | inactive
C=CCNNCC=C | active; inactive
COc1cc(OC)c2c3c(c(=O)oc2c1)C(=O)CC3 | inactive; active
CNNC | active
Cc1cc(O)ccc1O | inactive; active
CC(C)COC(=O)c1ccc(O)cc1 | inactive
NNC(=O)c1ccccc1 | active
Oc1ccc(Cl)cc1Cc1ccccc1 | active
Cl[C@H]1OCCO[C@@H]1Cl | inactive
CCC[CH2][Sn]([CH2]CCC)([CH2]CCC)[O][Sn]([CH2]CCC)([CH2]CCC)[CH2]CCC | inactive
Cc1cc(Cc2ccc(N)c(C)c2)ccc1N | active
Cc1cccc(Nc2cc(Cl)nc(SCC(=O)NCCO)n2)c1C | active; inactive

Structure (SMILES) | outcome
Nc1nnc(-c2ccc([N+](=O)[O-])o2)o1 | active
CNCCc1ccc(OC(=O)C(C)C)c(OC(=O)C(C)C)c1 | inactive
C#C[C@@]1(O)CC[C@H]2[C@@H]3CCC4=CCCC[C@@H]4[C@H]3CC[C@@]21C | active
Nc1cnn([C@@H]2O[C@H](CO)[C@@H](O)[C@H]2O)c(=O)n1 | inactive
ClC1=C(Cl)[C@]2(Cl)[C@@H]3[C@@H]4C[C@@H]([C@H]5O[C@@H]45)[C@@H]3[C@@]1(Cl)C2(Cl)Cl | active
CC(=O)OCc1ccccc1 | active; inactive
CCCCCN(N=O)C(=O)OCC | active
c1ccc2c(c1)Nc1ccccc1S2 | inactive
Nc1c(F)c(N)c(F)c(F)c1F | active; inactive
CCn1cc(C(=O)O)c(=O)c2cc3c(cc21)OCO3 | active
CCCCC(CC)COC(=O)c1ccccc1C(=O)OCC(CC)CCCC (stereo not given) | active
CCN(N=O)C(N)=O | active; inactive
CS(=O)(=O)OCCCNCCCOS(C)(=O)=O | inactive; active
NC(=S)NNS(=O)(=O)c1ccccc1 | inactive
COc1cc(NC(=O)C(N=Nc2ccc(-c3ccc(N=NC(C(C)=O)C(=O)Nc4cc(OC)c(Cl)cc4OC)c(Cl)c3)cc2Cl)C(C)=O)c(OC)cc1Cl (stereo not given) | inactive
C=C(Cl)CSC(=S)N(CC)CC | active; inactive
CC1=CC(=O)CC(C)(C)C1 | active
CC(=O)Nc1ccc(-c2ccccc2)cc1O | inactive; active
Oc1ccc(Cl)cc1Cl | inactive
CC(CN1c2ccccc2Sc2ccccc21)N(C)C (stereo not given) | inactive
O=NN1CC=CCO1 | active
O=C1C2(Cl)C3(Cl)C4(Cl)C(Cl)(Cl)C5(Cl)C3(Cl)C1(Cl)C5(Cl)C24Cl (stereo not given) | active; inactive

Structure (SMILES) | outcome
O=C1C2CC=CCC2C(=O)N1SC(Cl)(Cl)Cl (stereo not given) | active
NC(=O)NNc1ccccc1 | active; inactive
c1ccc2sc(SNC3CCCCC3)nc2c1 | inactive
C=C1CC[C@H](O)C/C1=C/C=C1\CCC[C@]2(C)[C@@H]([C@H](C)CC[C@@H](O)C(C)(C)O)CC[C@@H]12 | inactive; active
COc1cccc2c1C(=O)c1c(O)c3c(c(O)c1C2=O)C[C@@](O)(C(=O)CO)C[C@@H]3O[C@H]1C[C@H](N)[C@H](O)[C@H](C)O1 | inactive; active
CCN(Cc1cccc(S(=O)(=O)[O-])c1)c1ccc(C(=C2C=CC(=[N+](C)C)C=C2)c2ccc(N(CC)Cc3cccc(S(=O)(=O)O)c3)cc2)cc1 | active
COc1ccc(C(Cl)=C(c2ccc(OC)cc2)c2ccc(OC)cc2)cc1 | inactive
CCNC(=O)Nc1ncc([N+](=O)[O-])s1 | active
FC(F)Cl | inactive
CC[N+]([O-])=NC | active
S=C(SSSSSSC(=S)N1CCCCC1)N1CCCCC1 | inactive
CC1=C[C@H]2[C@@]3(O)[C@H](C)[C@@H](O)[C@]4(O)[C@H]([C@@H]3C=C(CO)C[C@]2(O)C1=O)C4(C)C | active
CCN(CC)C(=S)[S-].CCN(CC)C(=S)[S-].[Cd+2] | inactive
[K+] | active; inactive
CC(=O)CN(CC(C)=O)N=O | active
COc1ccc(N)c(C)c1 | active
c1ccc2c(c1)cc1ccc3cccc4ccc2c1c34 | active; inactive
CN(N=O)C(=O)c1ccccc1 | active; inactive
CCN(CC)c1cc2oc3cc(=[N+](CC)CC)c(C)cc-3c(-c3ccc(S(=O)(=O)O)cc3S(=O)(=O)[O-])c2cc1C | inactive
CC(C)=NNc1ncc(-c2ccc([N+](=O)[O-])o2)s1 | active; inactive
COc1ccc(CN(CCN(C)C)c2ccccn2)cc1 | active; inactive
C=CC1=C(C)C2=CC3=NC(=C(CC(=O)[O-])C4=NC(=C(C)C4=C([O-])[O-])C=c4[n-]c(c(C)c4CC)=CC1=N2)[C@@H](CCC(=O)[O-])[C@@H]3C.[Cu+2].[Na+].[Na+].[Na+] | inactive

Structure (SMILES) | outcome
CC(C)C=O | inactive
Nc1ccc(N=Nc2ccccc2)c(N)n1 | active
CN(C)C(=S)[S][Bi]([S]C(=S)N(C)C)[S]C(=S)N(C)C | inactive
CCN=c1cc2oc3cc(NCC)c(C)cc3c(-c3ccccc3C(=O)OCC)c-2cc1C | inactive; active
CCCN(N)C=O | active
O=c1[nH]cc(F)c(=O)[nH]1 | active; inactive
C=C(C)C(=O)Nc1ccc(Cl)c(Cl)c1 | inactive
OCCN(CCO)CCO | active; inactive
CC[C@]1(O)CC2CN(CCc3c([nH]c4ccccc34)[C@@](C(=O)OC)(c3cc4c(cc3OC)N(C)[C@H]3[C@@](O)(C(=O)OC)[C@H](OC(C)=O)[C@]5(CC)C=CCN6CC[C@]43[C@@H]65)C2)C1 (stereo not given in full) | inactive
COc1ccc(N)cc1 | inactive
COc1ccc(C)cc1N | active
NC(=O)NC1NC(=O)NC1=O (stereo not given) | inactive
Cc1c([N+](=O)[O-])c(C)c([N+](=O)[O-])c(C(C)(C)C)c1[N+](=O)[O-] | active
C=CCN(CC(O)CO)N=O (stereo not given) | active
O=[N+]([O-])c1ccc(NCCO)c(OCCO)c1 | inactive
CCN(CC)CC#CC(C)(C)OC(=O)C(O)(c1ccccc1)C1CCCCC1 (stereo not given) | inactive; active
CCCCCN(N=O)C(=N)N[N+](=O)[O-] | inactive
O=C(O)CC[N+](=O)[O-] | inactive; active
COc1ccc(O)cc1 | active
